Tested on: P. falciparum 3D7 growth, pLDH absorbance
Test: blood-stage malaria parasite growth potency – strain 3D7, dose response (AID 2305)

SMILES	IC50
CCN(CC)C(=NCCCCCCN=C(/N=C(/N)Nc1ccc(Br)cc1)N(CC)CC)/N=C(/N)Nc1ccc(Br)cc1	380 nM
O=C(NCCCN1CCOCC1)c1ccc(-c2cccc(NC(=O)c3ccc(Cl)c(Cl)c3)c2)cc1	680 nM
COc1cc(C=CC(=O)N2CCC(CCN3CCC(c4c[nH]c5ccccc45)CC3)CC2)cc(OC)c1	910 nM
CN(C)Cc1cccc(CNC(=O)c2sccc2OCc2ccc(Cl)cc2)c1	830 nM
Cc1[nH]c(C)c(-c2ccc(-c3ccc(F)cc3)nc2)c(=O)c1Br	250 nM
CC(=O)Nc1ccc2[nH]cc(C3CCN(CC4CCC(NC(=O)/C=C/c5ccccc5Cl)CC4)CC3)c2n1 (stereo not given)	360 nM
CC(C)CCNc1nc(NCCc2ccccc2)c2cc(O)ccc2n1	240 nM
COc1ccc2ncc(F)c(CCN3CCC(NCc4cnc5c(c4)NC(=O)CS5)CC3)c2c1	570 nM
O[C@@H](c1ccccc1)[C@@H]1CN(CCc2ccccc2)CC[C@@]1(O)c1ccccc1	1040 nM
N#Cc1ccc(N2CCN(Cc3cccc(-c4cccc(-c5nc6ccc(C(F)(F)F)cc6[nH]5)c4)c3)CC2)nc1	960 nM
O=C(CCc1ccccc1)NC(c1ccc(Cl)cc1)c1ccc2cccnc2c1O (stereo not given)	850 nM
Cc1ccc(-c2ccn(Cc3ccc(OCc4ccccc4)cc3)n2)cn1 (tested in a mixture with another compound)	670 nM
Oc1c(CN2CCCC(C(F)(F)F)C2)cc(Cl)c2ccccc12 (stereo not given)	1570 nM
O=C(/C=C/c1ccc(Cl)c(Cl)c1)NCCCCCN1CCC(NC(=O)Nc2ccc(Br)cc2)CC1	570 nM
O=C(NC1CCCCC1)N(Cc1cccc(-c2ccc(CNCc3ccc4c(c3)OCO4)cc2)c1)C1CCN(Cc2ccccc2)CC1	790 nM
CC(C)C[C@H](Nc1ccc(C#N)c2ccccc12)C(=O)N[C@@H]1CCCc2ccccc21	760 nM
Cc1cccc2[nH]c(-c3ccc(-c4ccc(NC(=O)NCc5ccc(F)cc5)cc4)cc3)nc12	1330 nM
CCN(CC)C(=NCCCCCCN=C(/N=C(\N)Nc1ccc(Cl)c(Cl)c1)N(CC)CC)/N=C(\N)Nc1ccc(Cl)c(Cl)c1	760 nM
CC(CN1CCN(C)CC1)C(=O)Nc1ccc(-c2ccc(-c3nc4ccc(C(F)(F)F)cc4[nH]3)cc2)cc1 (stereo not given)	410 nM
COc1ccc(Cn2c(SCc3ccc(C)cc3)nc3cc(OC)c(OC)cc3c2=N)cc1Cl	980 nM
Cc1cccc(NC(=O)c2ccc(C(=O)NC3CCN(CC4CCCCC4)CC3)cc2)c1	810 nM
CCOc1ccc2nc3cc([N+](=O)[O-])ccc3c(N)c2c1	140 nM
N#Cc1ccc(-c2ccc(C(=O)NCC3CCN(CCN4CCC(c5ccc6c(c5OCC(N)=O)CCCC6)CC4)CC3)cc2)cc1	440 nM
COc1ccc(CNC2CCN(C)CC2)cc1-c1ccc(S(=O)(=O)NC2CCC2)s1	730 nM

SMILES	IC50
O=C(Nc1ccc(-c2nc3ccccc3[nH]2)cc1)C1CCN(Cc2ccccc2)CC1	1760 nM
O=C(Nc1ccc(Cl)c(Cl)c1)Nc1ccccc1N1CCNCC1	710 nM
O=C(Nc1ccc(Cl)cc1)c1cc(Cl)ccc1NC(=O)C1(c2ccc(Cl)cc2)CCCC1	1100 nM
O=C(NC(Nc1ccc([N+](=O)[O-])cc1)C(Cl)(Cl)Cl)c1cccc(Cl)c1 (stereo not given)	860 nM
O=C(/C=C/c1ccc(Cl)c(Cl)c1)N1CCC(CN2CCC(c3c[nH]c4ncccc34)CC2)CC1	1090 nM
Cc1cccc2[nH]c(-c3ccc(-c4ccc(NC(=O)CN5CCN(C)CC5)cc4)cc3)nc12	790 nM
COc1ccc(C=NNc2cc(C)nc3ccc(C)cc23)c2ccccc12	860 nM
N#Cc1ccc(CNCCCCCCCNCc2ccc(-c3ccccc3)cc2)cc1	970 nM
CCCCCCCCn1c2c(c(=N)c3c1CCC3)CCCC2	110 nM
Cc1ccc(OC2CCN(c3ccc(C(=O)NC4CC4)cn3)CC2)cc1	1300 nM
Fc1ccc2nc(-c3cccc(-c4ccc(CN5CCC(CCN6CCCCC6)CC5)cc4)c3)[nH]c2c1	140 nM
CCC(C)c1ccc(NC(=O)C(C)c2ccc([N+](=O)[O-])cc2)cc1 (stereo not given)	180 nM
Cc1cccc(CCNC(=O)c2cc(Br)cc(N3CCN(c4ccncc4)CC3)c2)c1	870 nM
Cc1cccc2[nH]c(-c3ccc(-c4ccc(CN5CCN(CCO)CC5)cc4)cc3)nc12	600 nM
O=C(NCCCCN1CCC(c2cccc3ccccc23)CC1)c1ccc(-c2ccc(C(F)(F)F)cn2)cc1	870 nM
CNC(=O)c1cnc(Nc2ccc3[nH]c(=O)[nH]c3c2)nc1Nc1cccc(OC(C)C)c1	930 nM
Fc1cccc(COc2ccc(Nc3ncnc4sc(C#CCNC5CCCC5)cc34)cc2Cl)c1	780 nM
Cc1cccc2[nH]c(-c3ccc(-c4cccc(NC(=O)NCc5ccc(F)cc5)c4)cc3)nc12	150 nM
Cc1cc(-c2ccc(NC(=O)N3CCc4cc(Cl)c(N5CCN(C)CC5)cc43)cc2)ccc1C#N	590 nM
COc1ccc2nccc([C@@H](O)CN3CCC(NC(=O)c4cc5cccnc5[nH]4)CC3)c2c1	890 nM
O=C(Cc1cc(F)cc(F)c1)NC1CCN(c2ccnc3cc(Cl)ccc23)C1 (stereo not given)	250 nM
CCCC/C=C(\Cl)c1ccc(O)c2c1C[C@H]1C[C@H]3[C@H](N(C)C)C(=O)C(C(N)=O)=C(O)[C@@]3(O)C(=O)C1=C2O	1090 nM
CS(=O)(=O)Nc1cccc(-c2cnc3[nH]cc(-c4ccc(CCC(=O)O)cc4)c3c2)c1	1060 nM
C[C@H]1CN(Cc2cccc(-c3cc(CNC(=O)c4cccc(CN5CCN(C/C=C/c6ccccc6)CC5)c4)ccc3F)c2)CCN1	850 nM

SMILES	IC50
CN1CCCC(CN2CCN(Cc3cccc(-c4ccc(-c5nc6ccccc6[nH]5)cc4)c3)CC2)C1 (stereo not given)	160 nM
CC(=O)c1ccc(-c2ccccc2)s1	1080 nM
COc1ccccc1CNC(=O)c1ccc(N2CCN(c3ccncc3)CC2)cn1	1360 nM
O=S(=O)(c1cc2ccccc2s1)N(CCC(O)(C(F)(F)F)C(F)(F)F)Cc1cccc(O)c1	750 nM
CC(=O)Nc1cc(C(=O)Nc2ccc(C3=NCCN3)cc2)ccc1C(=O)Nc1ccc(C2=NCCN2)cc1	130 nM
O=C(NCc1cccc(F)c1)Nc1ccc(-c2cccc(-c3nc4ccccc4[nH]3)c2)cc1	890 nM
Cc1noc(C)c1-c1ccc2c(Nc3ccccc3C(C)(C)C)c(C(=O)NCc3ccc4c(c3)OCO4)cnc2c1	910 nM
O=C(/C=C/c1ccc(Cl)c(Cl)c1)NCCCCCN1CCC(NC(=O)Nc2ccc(Oc3ccccc3)cc2)C1 (stereo not given)	590 nM
CC(C)(C)Nc1cc(C(=O)N[C@@H](Cc2ccccc2)[C@H](O)CNC2CCOCC2)cc(N2CCCCS2(=O)=O)c1	150 nM
COc1cc(CNC[C@@H](O)[C@H](Cc2ccccc2)NC(=O)c2cc(OC(C)C)cc(N3CCCS3(=O)=O)c2)cc(OC)c1	800 nM
Cc1ccc(C(=O)Nc2cccc(-c3ccc(N4CCN(C)CC4)nn3)c2)cc1[N+](=O)[O-]	330 nM
Cc1ccc(-c2csc(C)n2)c(C)c1	990 nM
CCCCN(CCCC)CCCCNc1c2ccc(Cl)cc2nc2ccc(OC)cc12	180 nM
COc1cc2nccc(Nc3ccc(Oc4ccccc4)cc3)c2cc1OC	680 nM
FC(F)(F)c1cccc(CNCC2CCN(Cc3ccc4c(c3)OCO4)CC2)c1	730 nM
CCc1ccc(CN2CCCCC(NC(=O)c3cc(-c4ccccc4F)cs3)C2)cc1 (stereo not given)	1160 nM
CC[C@H](C)CNC(=O)c1cccc(-c2ccc(CN3CCC(N4CCCC4)CC3)cc2)n1	790 nM
CN1CCN(CCCN(Cc2cccc(-c3cccc(CNCc4ccc5c(c4)OCO5)c3)c2)C(=O)CCC2CCCC2)CC1	950 nM
CC(=O)Nc1ccc(C#Cc2ccc(-c3c(C)[nH]c(C)c(Cl)c3=O)cc2)cc1	460 nM
O=c1cc(NCCCNCc2ccc(Cl)c(Cl)c2)[nH]c2ccc(Oc3ccccc3)cc12	850 nM
O=C1OC2(CCN(C(=O)c3ccc(-n4cnnn4)cc3)CC2)CN1Cc1ccc(Cl)c(Cl)c1	720 nM
Cc1ccc(Nc2ccnc3ccc(C(F)(F)F)cc23)cc1O	960 nM
O=C(N[C@@H](Cc1ccccc1)[C@H](O)CNC1CCCc2ccccc21)c1cc(C2CCCC2)cc(N2CCCC2=O)c1 (stereo not given in full)	160 nM
COc1ccc(C(=O)C2CCN(CCCCNC(=O)c3ccc(NC(=O)c4ccc(Cl)cc4)cc3)CC2)c(OC)c1	770 nM

SMILES	IC50
O=C(Nc1cccc(-c2cccc(F)c2)c1)C1CCN(Cc2ccc(O)cc2)CC1	1730 nM
O=C(/C=C/c1ccc(I)cc1)NCCCCCN1CCC(c2c[nH]c3ccc(O)cc23)CC1	770 nM
CCOc1ccc(-c2n[nH]c(C(F)(F)F)c2-c2ccccc2OC)c(O)c1	1140 nM
CC(C)c1ccc(-c2noc(SCC(=O)N3CCCCC3C)n2)cc1 (stereo not given)	1670 nM
O=C(Nc1ccc(N2CCNCC2)nc1)c1oc(-c2ccccc2)nc1C(F)(F)F	980 nM
O=C(Nc1cccc(CN2CCN(C(=O)c3ccccc3)CC2)c1)c1ccco1	890 nM
CN(Cc1ccc(-c2ccc(C(F)(F)F)cc2)cc1)C(=O)Cn1c(CCc2cccc(F)c2F)cc(=O)c2ccc(OCC3CCCN3C)cc21 (stereo not given)	1070 nM
O=C(Nc1ccc(C(F)(F)F)cc1)c1cccc(S(=O)(=O)NC2CCN(CC3CCCCC3)CC2)c1	850 nM
FC(F)(F)c1cccc(Nc2nc3ccccc3nc2Nc2cccc(C(F)(F)F)c2)c1	140 nM
COc1ccc(CCNCc2ccc3nc(N)c(C)cc3c2)cc1	990 nM
COc1ccc2nccc([C@@H](O)CN3CCC(NCCOc4ccccc4C#N)CC3)c2c1	400 nM
COc1cc2nc(N3CC(C)N(C(=O)Cc4ccc(-c5ccccc5)cc4)C(C)C3)nc(N)c2cc1OC (stereo not given)	800 nM
O=C(NCCCNc1ccnc2cc(Cl)ccc12)c1ccccc1F	320 nM
CCc1cn2c3c(cc(C(=O)N[C@@H](Cc4ccccc4)[C@H](O)CNC4CCOCC4)cc13)N(C)S(=O)(=O)C2	90 nM
Cc1cc(N)c2cc(NC(=O)c3ccc4ccccc4c3)ccc2n1	250 nM
COc1cc(Nc2nccc(N3CCC(NC(=O)Nc4cc(C)ccc4C)C3)n2)cc(OC)c1OC (stereo not given)	1120 nM
COc1ccc2ncc(F)c(CCN3CC[C@@H](CNCc4cc(C)c5c(c4)OCCO5)C3)c2n1	890 nM
CC(Cc1ccc(C(C)(C)C)cc1)NCC(O)c1ccccc1 (stereo not given)	1810 nM
Cc1ccc(N2C(=O)C3C(C2=O)[C@]2(c4ccccc4)C(=O)[C@@]3(c3ccccc3)C(c3ccccc3)=C2c2ccccc2)cc1 (stereo not given in full)	870 nM
CN(C)CCc1coc2ccc(C(=O)Nc3ccc(-c4ccc(O)cc4)cc3)cc12	1080 nM
Cc1cc(C)c(C(=O)Nc2ccc3nc(C)cc(N)c3c2)c(C)c1	1090 nM
COCCN(CCOC)c1ncc(-c2ccsc2)c(-c2nc(C)c(C)s2)n1	840 nM
O=C(COc1ccccc1)Nn1cnc2ccccc21	1050 nM
